# Publication PMC13293952 (Cell Reports Medicine, 2026)
# Key:
# [1] = system: CFA mice; assay: CFA model of inflammatory pain, von Frey paw withdrawal threshold; type: in vivo, mouse; conditions: 3 mg/kg s.c. on days 11 and 40 after CFA, AAV8-tdTomato controls
# [2] = target: PICK1 (Rattus norvegicus, UniProt Q9EP80); assay: FPLC; type: biochemical; conditions: FPLC Superdex 200, PICK1 40 µM, molar ratio 1:4 or 1:2, >=20 h at 4°C, A280
# Chain of PICK1 (Q9EP80 whole entry): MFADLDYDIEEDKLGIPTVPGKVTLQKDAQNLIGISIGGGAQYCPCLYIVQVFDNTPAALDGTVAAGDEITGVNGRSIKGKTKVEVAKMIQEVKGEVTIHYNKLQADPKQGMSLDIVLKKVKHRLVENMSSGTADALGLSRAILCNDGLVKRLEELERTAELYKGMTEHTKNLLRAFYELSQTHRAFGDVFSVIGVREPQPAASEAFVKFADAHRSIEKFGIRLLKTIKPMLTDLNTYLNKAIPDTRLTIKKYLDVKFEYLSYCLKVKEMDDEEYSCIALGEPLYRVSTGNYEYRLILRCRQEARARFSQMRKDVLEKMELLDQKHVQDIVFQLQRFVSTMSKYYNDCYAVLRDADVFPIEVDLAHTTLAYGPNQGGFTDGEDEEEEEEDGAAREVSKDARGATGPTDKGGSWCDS
Molecule,reinstatement of allodynia [1],PICK1 oligomerization [2]
"O=C1CC[C@@]2(O)[C@H]3Cc4ccc(O)c5c4[C@@]2(CCN3CC2CC2)[C@H]1O5 [NTX, naltrexone]",selectively reinstated allodynia in this group,
biotin-ahx-GEELLEDIRKFNEMRKNMDQLKEKINSVLSIRQGGGGS-HWLKV [SSO10a-C5],,drove PICK1 oligomerization
